Data published in patent publication US20240130367A1, “PLANT GROWTH PROMOTERS” (University of Durham, priority 2020, published 2024).
Structures can show the parent of a compound that is named as a salt.

Columns and labels:
[1] = system: Arabidopsis thaliana wild-type; assay: Root growth assay, seedlings on agar plates containing chemical; format: in vivo; conditions: 100 μM; for Root growth activity relative to A1: 7-day old seedlings, 5 days
Description: Arabidopsis thaliana wild-type seeds were from laboratory stocks of Columbia (Col-0) and Landsberg erecta (Ler-0) accessions. […] Seeds were plated out 1×MS medium pH 5.8 (T. Murashige and F. Skoog (1962) Physiologia Plantarum 15: 473-497) in petri dishes with a concentration of either 0.8% or 1.2% (w/v) phytoagar for root and hypocotyl measurements, respectively. After sowing seeds were stratified on plates at 4° C. for a minimum of 48 h to achieve synchronous germination. Seedlings were grown for either 7 or 2 days for root and hypocotyl measurements, respectively, prior to treatment with chemicals. […] Seedling were grown in a Percival (CU-36L5D, CLF plant climatics, Emersacker, Germany) with a photoperiod of 16/8 h with a light intensity of either 150 μmol m^2 s^−1 or 50 μmol m^2 s^−1 for root and hypocotyl measurements, respectively, and a temperature of 20±1° C.
The effect of the A1 analogues on root and hypocotyl growth was investigated. In order to allow a direct comparison with eW5, the concentration used in these assays was 100 μM. The root growth assay was performed by treating the 7-day old seedlings on chemical plates for 5 days.

della quintuple mutant = assay: Hypocotyl growth assay in della quintuple mutant; format: in vivo, Arabidopsis thaliana
Source text: (§1) Arabidopsis thaliana wild-type seeds were from laboratory stocks of Columbia (Col-0) and Landsberg erecta (Ler-0) accessions. Arabidopsis thaliana is a dicot. The mutants of gid1 (J. Griffiths, et al., Plant Cell, 2006, 18, 3399-3414) were obtained from Dr. Steve Thomas (Rothamsted Research, UK) and were in a Col-0 background, whilst the della quintuple mutant (S. H. Feng et al. Nature, 2008, 451: 475-479) and ga1-5 (I. Fridborg et al. Plant Cell, 1999, 11: 1019-1031) were in a Ler-0 background and was obtained from the Nottingham Arabidopsis Stock Centre (NASC). The A. thaliana line expressing RGA-GFP (A. L. Silverstone et al. The Plant Cell, 2001, 13: 1555-1565), Col-0 background was obtained from Prof. Keith Lindsey (Durham University, UK). […]
(§2) After growing as described above seedlings for root assays were transferred to 1.2% (w/v) agar plates containing each chemical at a final concentration of 100 μM (the addition of the chemicals was performed when media had cooled to 50° C. after autoclaving), with an equivalent concentration of DMSO as control. […] The plants were subsequently grown vertically and after a further 5 days images of the plates were scanned and the root growth that occurred during the 5 days on chemicals was measured using ImageJ software. 18 seedlings were measured for each treatment. […] At least 15 seedlings were measured for each plate. […]

Arabidopsis thaliana = assay: Fresh and dry weight measurements of treated seedlings; format: in vivo; conditions: 5 days chemical treatment
Description: Leaves and roots fresh weights of 12 days old seedlings, that were subjected to 5 days chemical treatment as described above, were measured. Dry weights were recorded after placing the plant material in oven at 65° C. for 3 days. The measurements were performed on 15 seedlings for each treatment.
Having discovered the root growth-promoting properties of A1, we wished to establish if the effects were limited to the roots, or whether A1 could also promote growth of shoot tissue. We were also interested to see if the effect was on fresh weight, dry weight or both. To investigate this, plants were treated with A1, divided into shoot and root material and the fresh and dry weight recorded.

gid1 double mutants = assay: Hypocotyl growth assay in GA receptor gid1 double mutants; format: in vivo, Arabidopsis thaliana
Source text: as §1, §2

maize = assay: Growth of a monocot on application of A1; format: in vivo
[2] = system: Arabidopsis thaliana wild-type; assay: Hypocotyl growth assay under reduced light; format: in vivo; conditions: 100 μM; for Effect on hypocotyl growth in wild type / New Length / New length (cm): three days; for Effect on hypocotyl growth in wild type / Hypocotyl growth promotion relative to A1: reduced light; for New Length / Relative growth (cm) / New length (cm): hypocotyl; for New Length: in cm; for New length (cm): trials 1, 2, 3 and SAM each with own DMSO control
Source text: (§3) Arabidopsis thaliana wild-type seeds were from laboratory stocks of Columbia (Col-0) and Landsberg erecta (Ler-0) accessions. Arabidopsis thaliana is a dicot. The mutants of gid1 (J. Griffiths, et al., Plant Cell, 2006, 18, 3399-3414) were obtained from Dr. Steve Thomas (Rothamsted Research, UK) and were in a Col-0 background, whilst the della quintuple mutant (S. H. Feng et al. Nature, 2008, 451: 475-479) and ga1-5 (I. Fridborg et al. Plant Cell, 1999, 11: 1019-1031) were in a Ler-0 background and was obtained from the Nottingham Arabidopsis Stock Centre (NASC). The A. thaliana line expressing RGA-GFP (A. L. Silverstone et al. The Plant Cell, 2001, 13: 1555-1565), Col-0 background was obtained from Prof. Keith Lindsey (Durham University, UK). Seeds were plated out 1×MS medium pH 5.8 (T. Murashige and F. Skoog (1962) Physiologia Plantarum 15: 473-497) in petri dishes with a concentration of either 0.8% or 1.2% (w/v) phytoagar for root and hypocotyl measurements, respectively. After sowing seeds were stratified on plates at 4° C. for a minimum of 48 h to achieve synchronous germination. Seedlings were grown for either 7 or 2 days for root and hypocotyl measurements, respectively, prior to treatment with chemicals. For hypocotyl measurements, seeds were sown on nylon mesh (acid resistant monofilament nylon filter mesh fabric; GZ, model number H20M). Seedling were grown in a Percival (CU-36L5D, CLF plant climatics, Emersacker, Germany) with a photoperiod of 16/8 h with a light intensity of either 150 μmol m^2 s^−1 or 50 μmol m^2 s^−1 for root and hypocotyl measurements, respectively, and a temperature of 20±1° C.
After growing as described above seedlings for root assays were transferred to 1.2% (w/v) agar plates containing each chemical at a final concentration of 100 μM (the addition of the chemicals was performed when media had cooled to 50° C. after autoclaving), with an equivalent concentration of DMSO as control. At this stage the positions of the root tips were marked on the petri dish. The plants were subsequently grown vertically and after a further 5 days images of the plates were scanned and the root growth that occurred during the 5 days on chemicals was measured using ImageJ software. 18 seedlings were measured for each treatment. For hypocotyl measurements the assay performed was adapted from de Lucas et al. (2008, supra). After growing seedlings as described above, the nylon mesh was transferred across to the plates containing chemical. The plants were then placed in vertical orientation for three days under reduced light intensity (by covering plates with 2 layers of 80 g·m^2 white paper) before the plates were scanned. The measurement of hypocotyl was done using ImageJ software. At least 15 seedlings were measured for each plate.
To determine the mechanism of A1 action via the GA/DELLA signaling pathway, the response of A1 in a series of GA synthesis/signalling mutants was investigated. For these assays the focus was on hypocotyl growth, because it is well established that DELLA can inhibit the binding of PIFs to their target promoter leading to a reduction in GA-regulated hypocotyl growth (A. Castillon, H. Shen and E. Huq (2007) Trends in Plant Science, 12: 514-521.; de Lucas et al. 2008, supra; S. H. Feng et al. 2008, supra. To establish the use of A1 in this assay, hypocotyl growth was first tested by growing the seedlings on agar plates containing A1, with GA and PAC used as positive and negative controls, respectively, for three days in reduced light conditions to achieve a balance between maximum and minimum hypocotyl growth. […] Having established the hypocotyl assay, DELLA-dependence of the A1 effect was then confirmed genetically. To test this, a mutant line that lacks all DELLA (GAI, RGA, RGL1, RGL2 and RGL3) function was used.
The effect of additional compounds on hypocotyl growth was investigated using the same methods as described above (100 μM of each compound was used). […]

ga1-5 mutant = assay: Hypocotyl growth assay in GA biosynthesis mutant ga1-5; format: in vivo, Arabidopsis thaliana; conditions: 100 μM, three days
Source text: as §1, §2

RGA-GFP = assay: DELLA degradation: confocal imaging of RGA-GFP fluorescence in roots; format: in vivo, Arabidopsis thaliana; conditions: 100 μM; for GFP fluorescence / stability of DELLA protein in roots: A1 imaged after 2 and 24 hours, PAC applied 48 hours before
Source text: as §3
Confocal microscopy was performed using a Leica SP5 CLSM FLIM FCCS (Leica Microsystems, Wetzlar, Germany). GFP:RGA seeds were germinated and grown on 1.2% MS vertically for 7 days, and then incubated in chemical solution (at the final concentration of 100 μM) for 2 and 24 hours before being analyzed. […] The excitation wavelength of the argon laser was 488 nm and the emission was detected using a bypass filter of 495-550 nm. […]

plant = conditions: known calmodulin inhibitors; cited from earlier work
[3] = relative to the DMSO control of the same trial

With `Cl.NCCNS(=O)(=O)c1cccc2ccccc12` [eW5, 2′-Amino-1′-(1-naphthylsulfonylamino)Ethane Hydrochloric Acid Salt] the “Effect on root growth compared to DMSO control” value ([1]; 5 days on chemical) was “promoted root growth”, the “Effect on hypocotyl growth in mutant lacking all DELLA function” value (della quintuple mutant) was “no promotion of hypocotyl growth was observed” and the “Fresh weight of roots and shoots” value (Arabidopsis thaliana; 12 days old seedlings) was “increased”. The “Dry:fresh weight ratio in roots and shoots” value (Arabidopsis thaliana; dried at 65° C. for 3 days) was “increased”, the “Effect on hypocotyl length in gid1 double mutants compared with wild type” value (gid1 double mutants) was “the effect was reduced in the mutants” and the “Root, stem and leaf growth in maize” value (maize) was “Improved root, stem (hypocotyl in particular) and leaf growth”. For the same compound, the “Effect on hypocotyl growth in wild type” value [2] was “increased the hypocotyl length”, the “Effect on hypocotyl growth in wild type” value ([2]; listed as A1) was “stimulated hypocotyl growth in a manner very similar to GA” and the “New Length” value [2] was 0.9253. The “Relative growth (cm)” value ([2]; relative to DMSO control) was 0.3497, the “Recovery of hypocotyl elongation in ga1-5” value (ga1-5 mutant) was “could not recover hypocotyl elongation” and the “Time after which the DELLA degradation response could be observed” value (RGA-GFP) was 2 h. The “GFP fluorescence / stability of DELLA protein in roots” value (RGA-GFP) was “reduced GFP fluorescence”.

For `NCCCCCCNS(=O)(=O)c1cccc2ccccc12` [Compound W5, N-(6-Aminohexyl)-1-naphthalenesulfonamide], the “Effect on plant growth” value (plant) is given as “inhibit plant growth”.

For `CN(CCN)S(=O)(=O)c1cccc2ccccc12.Cl` [Compound E5, N-methyl-N-naphthylsulfonyl-1,2-ethanediamine Hydrochloric Acid Salt], the “Root growth activity relative to A1” value [1] was “biggest effect” and the “Hypocotyl growth promotion relative to A1” value [2] was “biggest effect”.

For `CC(C)(C)[C@@H](O)[C@@H](Cc1ccc(Cl)cc1)n1cncn1` (racemic) [PAC, paclobutrazol, reference compound], the “GFP fluorescence / stability of DELLA protein in roots” value (RGA-GFP) was “stabilized the DELLA protein”.

For `CCOC(=O)C(C)N(CCN)S(=O)(=O)c1cccc2ccccc12.Cl` (stereo not shown) [SAM4, ethyl 2-[N-(2-azaniumylethyl)naphthalene-1-sulfonamido]propanoate Chloride], the “New length (cm)” value [2] was 0.228 cm and the “Relative growth (cm)” value [2, 3] was 0.1574.

For `Cl.NCCNS(=O)(=O)Cc1ccccc1` [Compound E3, Alpha-toluenesulfonylethylene Diamine Hydrochloric Acid Salt], the “Root growth activity relative to A1” value [1] was “higher activity than A1” and the “Hypocotyl growth promotion relative to A1” value [2] was “less hypocotyl growth promotion relative to A1”.

In the case of `NCCCCCCNS(=O)(=O)c1cccc2c(Cl)cccc12` [Compound W7, N-(6-Aminohexyl)-5-chloro-1-naphthalenesulfonamide], the “Effect on plant growth” value (plant) is given as “inhibit plant growth”.

For `CNCCNS(=O)(=O)c1cccc2ccccc12` [JAR493, N-[2′-(methylamino)ethyl]naphthalene-1-sulfonamide Hydrochloride], the “New Length” value [2] was 0.897 and the “Relative growth (cm)” value ([2]; relative to DMSO control) was 0.3085.

For `O=S(=O)(NCCO)c1cccc2ccccc12` [JAR88, N-(2-hydroxyethyl)naphthalene-1-sulfonamide], the “New length (cm)” value [2] was 0.2827 cm and the “Relative growth (cm)” value [2, 3] was −0.2975.

In the case of `Cc1ccc(CS(=O)(=O)NCCN)cc1.Cl` [Compound E4, Alpha-p-xylenesulfonylethylene Diamine Hydrochloric Acid Salt], the “Root growth activity relative to A1” value [1] is reported as “higher activity than A1” and the “Hypocotyl growth promotion relative to A1” value [2] is reported as “less hypocotyl growth promotion relative to A1”.
